{
  "source": "paper PMC8158687",
  "about": "“Xanthones Active against Multidrug Resistance and Virulence Mechanisms of Bacteria” (Antibiotics, 2021)",
  "key": {"[1]": {"tested_on": "Chromobacterium violaceum wild type 85 (wt85)", "test": "Quorum sensing inhibition assay (disk, pigment production)", "type": "cell-based", "conditions": "read-out: Quorum Sensing Inhibition (mm) ± SD", "source_text": "(§1) The sensor strain Chromobacterium violaceum CV026 and the acyl-homoserine lactones (AHLs) producer strain Sphingomonas paucimobilis Ezf 10-17 (EZF) were inoculated as parallel lines, and the AHL producers, Chromobacterium violaceum wild type 85 (wt85) and Serratia marcescens AS-1 were inoculated as a single line.\n(§2) For the QS tests, all the bacteria used were Gram-negative. The bacteria used were Chromobacterium violaceum wild type 85 (wt85), characterized by the AHL signal molecule-mediated production of the purple violacein pigment, capable of endogenous QS-signal molecule production (N-hexanoyl-L-HSL), C. violaceum CV026 (CV026), a Tn5 transposase-mutant, AHL-signal molecule indicator strain (produces purple violacein pigment in the presence of AHL), which is incapable of endogenous QS-signal molecule-production, but useful in the detection of external stimuli, Sphingomonas paucimobilis Ezf 10-17 (EZF), AHL-producing-strain (used with C. violaceum CV026), and Serratia marcescens AS-1, characterized by the AHL signal molecule-mediated production of the orange–red pigment prodigiosin (2-methyl-3-pentyl-6-methoxyprodigiosin), capable of endogenous QS-signal molecule production (N-hexanoyl-L-HSL), were applied.\n(§3) The QS inhibitory effect of the compounds was examined on the EZF and the sensor CV026 strains, on the wt85 strain, and on S. marcescens, for 4, 5, 11, 12, 16, 19, and 20. The method used was the parallel inoculation method, where pair combinations of the used sensor strain CV026 and the N-acyl-homoserine lactone (AHL)-producing strain EZF were inoculated directly onto the LB*-A agar surface in parallel, at an approximate distance of 5 mm from each other. S. marcescens AS-1 and wt85 were inoculated as a single line. Filter paper disks (7 mm in diameter) were placed on the center of the inoculated line(s) and impregnated with 8 µL of a solution of 10 mM of the compounds. […] The agar plates were incubated at room temperature (20 °C) for 24–48 h. The QS inhibition was accessed visually, through the inhibition of pigment production. The discolored, but intact, bacterial colonies were measured with a ruler."}, "Serratia marcescens AS-1": {"tested_on": "Serratia marcescens AS-1", "test": "Quorum sensing inhibition assay (disk, pigment production)", "type": "cell-based", "conditions": "AS1, read-out: Quorum Sensing Inhibition (mm) ± SD", "source_text": "as §1, §2, §3"}, "S. aureus ATCC 29213": {"tested_on": "S. aureus ATCC 29213", "test": "Inhibition of biofilm formation (crystal violet)", "type": "cell-based, Staphylococcus aureus", "conditions": "half the MIC, or 100 µM if MIC >100 µM, 48 h, 30 °C"}, "S. aureus 272123 [2]": {"tested_on": "S. aureus 272123", "test": "Efflux pump inhibition assay (real-time ethidium bromide accumulation)", "type": "cell-based, Staphylococcus aureus", "conditions": "compound 50 µM, EB 1 µg/mL, minute 60", "description": "Compounds 1–20 were assessed for their capability of modulating ethidium bromide (EB) accumulation on two resistant strains. […] However, norA is a core gene of the S. aureus as a species, which means that the NorA pump occurs in all S. aureus strains.\n(§4) Salmonella enterica serovar Typhimurium SE03, was used as a Gram-negative bacterium. This strain has a deletion of the acrA gene, which was predicted with the least affinity for the compounds. The aim of these studies was to perform a first screening of these compounds and their ability to modulate the efflux of EB. […] The relative fluorescence index (RFI) was calculated based on the means of relative fluorescence units, depicted in Table 2.\n(§5) Compounds 1–20 were evaluated for their ability to inhibit efflux pumps in SE03 and S. aureus 272123 strains, through the real-time fluorimetry, monitoring the intracellular accumulation of EB, an efflux pump substrate. This was determined by the automated method using a CLARIOstar Plus plate reader (BMG Labtech, Ortenberg, Germany). Reserpine and CCCP were applied at 25 µM as positive controls, and the solvent DMSO was applied at 1% v/v. The bacterial strains were incubated in an appropriate culture media (TSB—S. aureus 272123; LB-B—SE03) at 37 °C until they reached an optical density (OD) between 0.4 and 0.6 at λ = 600 nm. The culture was centrifuged at 13,000× g for 3 min, and the pellet washed and resuspended with PBS. The suspension was centrifuged again in the same conditions and resuspended in PBS. The compounds were applied at 50 µM in a solution of a non-toxic concentration of EB (1 µg/mL) in PBS. Then, 50 µL of this solution were transferred into a 96-well black microtiter plate (Greiner Bio-One Hungary Kft, Mosonmagyaróvár, Fertősor, Hungary), and 50 µL of bacterial suspension (OD600 0.4–0.6) were added to each well. The plates were placed into the CLARIOstar plate reader, and the fluorescence was monitored at excitation and emission wavelengths of 530 nm and 600 nm every minute for one hour on a real-time basis. From the real-time data, the activity of the compounds, namely the RFI of the last time point (minute 60) of the EB accumulation assay, was calculated according to the following formula:(1) RFI=RFtreated−RFuntreated/RFuntreated where RFtreated is the relative fluorescence (RF) at the last time point of EB accumulation curve in the presence of the compound, and RFuntreated is the RF at the last time point of the EB accumulation curve of the untreated control, having only the solvent (DMSO) control. The accumulation curves were designed using Microsoft Excel®."}, "[3]": {"tested_on": "NIH/3T3 mouse fibroblast cells", "test": "Cytotoxicity assay (MTT)", "type": "cell-based", "description": "(§6) In order to apply efflux pump inhibitors to treat patients, several issues should be addressed.\n(§7) Mouse fibroblasts (NIH/3T3, ATCC CRL-1658TM) were cultivated in DMEM (Gibco 52100-039) and supplemented with 10% heat-inactivated fetal bovine serum (Biowest, VWR International Kft, Debrecen, Hungary), 2 mM of L-glutamine, 1 mM Na pyruvate, 100 U/L and 10 mg/L penicillin/streptomycin mixture (Sigma-Aldrich Chemie GmbH, Steinheim, Germany), respectively, and 0.1% nystatin (8.3 g/L in ethylene glycol). The adherent cells were detached using a combination of 0.25% Trypsin–Versene (EDTA) solution for 5 min at 37 °C. Before each cytotoxicity assay using this cell line, cells were seeded in untreated 96-well flat-bottom microtiter plates, following a 4-h incubation period in a humidified atmosphere (5% CO2, 95% air) at 37 °C [60].\n(§8) The cytotoxicity of 4, 12, 16, 19, and 20 was assessed in NIH/3T3 cells. The compounds were added to the cells distributed into 96-well flat bottom microtiter plates at concentrations of […] and initially incubated for 24 h, after which a solution of MTT in PBS was added to each well and incubated for another 4 h. The concentrations used were the same as in the MIC assay. After this, 100 μL of SDS (10% in a 0.01 M HCl solution) were added to each well and incubated overnight at 37 °C. Doxorubicin was used as the positive control. Cell growth was determined in quadruplicate by measuring OD at λ = 540 nm (reference 630 nm) in a Multiscan EX ELISA reader (Thermo Labsystems, Cheshire, WA, USA). The percentage of inhibition of cell growth was determined according to the equation: (2) 100−(ODsample−ODmedium control/ODcell control−ODmedium control)×100"}, "Cytotoxicity assay (MTT)": {"test": "Cytotoxicity assay (MTT)", "type": "cell-based, mouse", "conditions": "mouse, NIH/3T3 mouse fibroblast cells, 24 h, MTT, read-out: Cytotoxicity IC50 (µM) ± SD", "description": "as §6, §7, §8"}, "[4]": {"tested_on": "EZF + CV026 (Sphingomonas paucimobilis Ezf 10-17 + Chromobacterium violaceum CV026)", "test": "Quorum sensing inhibition assay (parallel inoculation, pigment production)", "type": "cell-based", "conditions": "read-out: Quorum Sensing Inhibition (mm) ± SD", "source_text": "as §1, §2, §3"}, "[5]": {"tested_on": "extended-spectrum β-lactamase producing strain", "set-up": "method as in PMID 32455828", "conditions": "previous results; ref [14]; cited from earlier work"}, "[6]": {"tested_on": "SE03 (acrA gene-inactivated Salmonella enterica serovar Typhimurium SL1344)", "test": "Efflux pump inhibition assay (real-time ethidium bromide accumulation)", "type": "cell-based", "conditions": "compound 50 µM, EB 1 µg/mL, minute 60", "description": "as §4, §5"}, "S. aureus 272123 [7]": {"tested_on": "S. aureus 272123", "test": "Inhibition of biofilm formation (crystal violet)", "type": "cell-based, Staphylococcus aureus", "conditions": "half the MIC, or 100 µM if MIC >100 µM, 48 h, 30 °C", "description": "The biofilm inhibition, presented in percentages (%), was calculated based on the mean of absorbance units.\nThe bacterial strains used were the Gram-positive S. aureus ATCC 25923 and S. aureus 272123. The detection of the biofilm formation was possible with the use of the dye crystal violet (CV; 0.1% v/v). The initial inoculum was incubated in TSB overnight, and then diluted to an OD600 of 0.1. Then, the bacterial suspension was added to 96-well microtiter plates and the compounds were added at half the MIC. […] The final volume in each well was 200 µL. […] The plates were incubated at 30 °C for 48 h, with gentle stirring (100 rpm). After this incubation period, the TSB medium was discarded, and the plates were washed with tap water to remove unattached cells. Afterwards, 200 µL of a 0.1% v/v CV solution were added to the wells and incubated for 15 min at room temperature. Then, the CV solution was removed from the wells, and the plates were washed again with tap water, and 200 µL of a 70% ethanolic solution were added to the wells. The biofilm formation was determined by measuring the OD600 using a Multiscan EX ELISA plate reader (Thermo Labsystems, Cheshire, WA, USA). The anti-biofilm effect of the compounds was expressed as the percentage (%) of decrease in biofilm formation."}},
  "data": [
    {"smiles": "O=c1c2cc(O)ccc2oc2cccc(O)c12", "note": "[Compound 4]", "values": [
      {"measurement": "zone of inhibition at 10000 µM", "setting": "[1]", "result": 0, "unit": "mm"},
      {"measurement": "zone of inhibition at 10000 µM", "setting": "Serratia marcescens AS-1", "result": 0, "unit": "mm"},
      {"measurement": "Inhibition of Biofilm Formation (%) ± SD", "setting": "S. aureus ATCC 29213", "result": "0 ^1%"},
      {"measurement": "RFI ± SD (relative fluorescence index)", "setting": "S. aureus 272123 [2]", "result": "0.13 ± 0.08 ^2"},
      {"measurement": "Cytotoxicity (in words)", "setting": "[3]", "result": "no cytotoxicity was observed"},
      {"measurement": "IC50 at 24 h", "setting": "Cytotoxicity assay (MTT)", "result": "> 100", "unit": "µM"},
      {"measurement": "zone of inhibition at 10000 µM", "setting": "[4]", "result": 0, "unit": "mm"},
      {"measurement": "activity against extended-spectrum β-lactamase producing strain (in words)", "setting": "[5]", "result": "not active"},
      {"measurement": "RFI ± SD (relative fluorescence index)", "setting": "[6]", "result": "2.90 ± 0.71 ^7"}
    ]},
    {"smiles": "COc1cc(CBr)c2c(=O)c3ccccc3oc2c1OC", "note": "[Compound 12]", "values": [
      {"measurement": "zone of inhibition at 10000 µM", "setting": "[1]", "result": 0, "unit": "mm"},
      {"measurement": "zone of inhibition at 10000 µM", "setting": "Serratia marcescens AS-1", "result": 0, "unit": "mm"},
      {"measurement": "Inhibition of Biofilm Formation (%) ± SD", "setting": "S. aureus ATCC 29213", "result": "0 ^1%"},
      {"measurement": "RFI ± SD (relative fluorescence index)", "setting": "S. aureus 272123 [2]", "result": "0.11 ± 0.30 ^4"},
      {"measurement": "Cytotoxicity (in words)", "setting": "[3]", "result": "moderate cytotoxicity"},
      {"measurement": "IC50 at 24 h", "setting": "Cytotoxicity assay (MTT)", "result": "54.6 ± 5.3", "unit": "µM"},
      {"measurement": "zone of inhibition at 10000 µM", "setting": "[4]", "result": "30 ± 0.5", "unit": "mm"},
      {"measurement": "RFI ± SD (relative fluorescence index)", "setting": "[6]", "result": "1.75 ± 1.57 ^9"},
      {"measurement": "Inhibition of Biofilm Formation (%) ± SD", "setting": "S. aureus 272123 [7]", "result": "6.27 ± 1.41 ^3%"}
    ]},
    {"smiles": "COc1ccc2c(=O)c3c(C=O)cc(OC)c(OC)c3oc2c1", "note": "[Compound 16]", "values": [
      {"measurement": "zone of inhibition at 10000 µM", "setting": "[1]", "result": 0, "unit": "mm"},
      {"measurement": "zone of inhibition at 10000 µM", "setting": "Serratia marcescens AS-1", "result": 0, "unit": "mm"},
      {"measurement": "Inhibition of Biofilm Formation (%) ± SD", "setting": "S. aureus ATCC 29213", "result": "0 ^2%"},
      {"measurement": "RFI ± SD (relative fluorescence index)", "setting": "S. aureus 272123 [2]", "result": "5.49 ± 8.04 ^5"},
      {"measurement": "Cytotoxicity (in words)", "setting": "[3]", "result": "moderate cytotoxicity"},
      {"measurement": "IC50 at 24 h", "setting": "Cytotoxicity assay (MTT)", "result": "26.9 ± 5.87", "unit": "µM"},
      {"measurement": "zone of inhibition at 10000 µM", "setting": "[4]", "result": "42 ± 0.8", "unit": "mm"},
      {"measurement": "RFI ± SD (relative fluorescence index)", "setting": "[6]", "result": "0.13 ± 0.15 ^10"},
      {"measurement": "Inhibition of Biofilm Formation (%) ± SD", "setting": "S. aureus 272123 [7]", "result": "58.98 ± 12.00 ^4%"}
    ]}
  ]
}
